Assay results as given in paper PMC9629851, “Cardiac myosin filaments are directly regulated by calcium” (The Journal of General Physiology, 2022).

Experiments:
[1] = molecular target: T1, β-cardiac full-length myosin (Bos taurus, UniProt Q9BE39); experiment: basal ATPase, enzymatically coupled assay on purified myosin; format: biochemical
T1 construct: gene MYH7; full-length myosin in synthetic thick filaments; also HMM and S1-subfragment

[2] = molecular target: T2, Human β-cardiac myosin (2-hep and 25-hep HMM) (Homo sapiens, UniProt P12883); experiment: basal ATPase assay of recombinant HMM; format: biochemical
T2 construct: gene MYH7
T2 sequence (P12883 1-855): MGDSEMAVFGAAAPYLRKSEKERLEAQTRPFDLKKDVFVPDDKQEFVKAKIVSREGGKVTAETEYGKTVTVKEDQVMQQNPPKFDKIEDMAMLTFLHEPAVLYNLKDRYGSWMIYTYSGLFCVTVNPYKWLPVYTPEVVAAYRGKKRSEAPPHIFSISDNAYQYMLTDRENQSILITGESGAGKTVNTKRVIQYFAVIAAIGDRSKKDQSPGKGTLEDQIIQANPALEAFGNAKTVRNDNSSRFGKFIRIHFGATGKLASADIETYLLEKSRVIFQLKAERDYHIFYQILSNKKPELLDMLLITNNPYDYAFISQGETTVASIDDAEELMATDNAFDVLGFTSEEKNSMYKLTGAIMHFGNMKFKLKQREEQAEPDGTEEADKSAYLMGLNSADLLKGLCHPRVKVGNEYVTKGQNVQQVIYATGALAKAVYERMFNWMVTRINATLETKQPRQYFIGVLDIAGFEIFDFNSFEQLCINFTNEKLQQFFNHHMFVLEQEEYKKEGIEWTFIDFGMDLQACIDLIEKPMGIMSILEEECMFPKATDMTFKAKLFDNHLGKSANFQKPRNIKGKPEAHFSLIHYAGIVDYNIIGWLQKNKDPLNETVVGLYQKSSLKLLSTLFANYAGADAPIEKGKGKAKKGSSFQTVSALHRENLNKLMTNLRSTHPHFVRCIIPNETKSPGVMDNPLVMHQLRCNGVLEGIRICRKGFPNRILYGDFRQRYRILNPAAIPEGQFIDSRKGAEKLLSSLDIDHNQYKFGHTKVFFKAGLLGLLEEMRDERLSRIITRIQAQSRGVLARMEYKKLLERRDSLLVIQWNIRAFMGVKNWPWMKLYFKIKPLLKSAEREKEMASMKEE

T1 sequence (Q9BE39 whole entry, the tested form may be a part): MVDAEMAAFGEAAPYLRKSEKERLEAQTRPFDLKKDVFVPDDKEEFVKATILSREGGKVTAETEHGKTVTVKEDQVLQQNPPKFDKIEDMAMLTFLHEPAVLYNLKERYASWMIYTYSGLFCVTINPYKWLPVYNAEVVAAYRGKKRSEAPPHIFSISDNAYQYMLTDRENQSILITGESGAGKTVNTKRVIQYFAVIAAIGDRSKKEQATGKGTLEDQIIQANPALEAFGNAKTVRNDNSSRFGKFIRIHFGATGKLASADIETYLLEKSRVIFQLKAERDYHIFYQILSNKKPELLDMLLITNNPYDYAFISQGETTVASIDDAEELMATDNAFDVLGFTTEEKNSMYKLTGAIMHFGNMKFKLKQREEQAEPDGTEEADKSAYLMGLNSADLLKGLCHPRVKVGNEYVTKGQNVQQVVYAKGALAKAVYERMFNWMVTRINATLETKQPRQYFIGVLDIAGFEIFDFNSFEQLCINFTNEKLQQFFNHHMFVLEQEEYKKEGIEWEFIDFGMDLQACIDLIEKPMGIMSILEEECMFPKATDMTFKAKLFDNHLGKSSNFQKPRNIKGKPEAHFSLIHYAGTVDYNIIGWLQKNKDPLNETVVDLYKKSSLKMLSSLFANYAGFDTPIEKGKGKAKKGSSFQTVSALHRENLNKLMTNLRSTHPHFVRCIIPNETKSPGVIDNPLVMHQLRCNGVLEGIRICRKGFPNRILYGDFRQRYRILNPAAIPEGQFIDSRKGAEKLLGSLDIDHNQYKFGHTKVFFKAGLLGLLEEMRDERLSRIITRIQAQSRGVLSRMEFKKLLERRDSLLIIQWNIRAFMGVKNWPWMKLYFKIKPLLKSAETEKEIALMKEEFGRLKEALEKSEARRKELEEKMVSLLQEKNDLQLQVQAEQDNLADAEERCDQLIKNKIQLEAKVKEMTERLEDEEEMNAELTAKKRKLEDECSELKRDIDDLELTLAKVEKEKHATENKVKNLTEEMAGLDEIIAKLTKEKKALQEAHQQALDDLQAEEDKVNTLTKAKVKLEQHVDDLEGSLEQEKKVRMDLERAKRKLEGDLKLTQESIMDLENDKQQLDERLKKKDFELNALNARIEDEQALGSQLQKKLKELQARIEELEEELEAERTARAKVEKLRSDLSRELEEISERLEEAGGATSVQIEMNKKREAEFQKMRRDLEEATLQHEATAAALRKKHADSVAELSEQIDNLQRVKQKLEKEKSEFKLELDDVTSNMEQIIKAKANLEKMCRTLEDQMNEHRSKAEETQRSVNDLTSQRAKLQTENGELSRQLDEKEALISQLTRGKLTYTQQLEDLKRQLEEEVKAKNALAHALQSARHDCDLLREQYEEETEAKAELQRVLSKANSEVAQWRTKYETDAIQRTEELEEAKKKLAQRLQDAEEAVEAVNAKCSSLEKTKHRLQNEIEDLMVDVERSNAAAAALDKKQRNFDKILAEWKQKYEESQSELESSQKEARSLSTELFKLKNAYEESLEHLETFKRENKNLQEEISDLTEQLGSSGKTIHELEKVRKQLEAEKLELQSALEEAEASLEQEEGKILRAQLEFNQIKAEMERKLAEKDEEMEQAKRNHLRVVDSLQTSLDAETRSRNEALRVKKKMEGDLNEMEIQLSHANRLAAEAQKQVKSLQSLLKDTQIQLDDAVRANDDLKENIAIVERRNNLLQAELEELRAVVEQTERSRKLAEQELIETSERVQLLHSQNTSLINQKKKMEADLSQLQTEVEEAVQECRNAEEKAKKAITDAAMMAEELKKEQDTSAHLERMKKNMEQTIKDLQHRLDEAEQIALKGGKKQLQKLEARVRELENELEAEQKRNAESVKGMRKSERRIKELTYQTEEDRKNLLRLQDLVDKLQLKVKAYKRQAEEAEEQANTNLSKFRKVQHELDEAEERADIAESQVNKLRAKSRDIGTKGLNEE

Q: With `Nc1ncnc2c1ncn2[C@@H]1O[C@H](COP(=O)(O)OP(=O)(O)OP(=O)(O)O)[C@@H](O)[C@H]1O` [ATP] as the compound, how does the “Raw values at pCa 8” value [1] read?
A: The value was 0.03 ± 0.01 s^−1.

Q: What about the “Raw values at pCa 8” value [2] of the same compound?
A: The value was 0.1 ± 0.05 s^−1.
